# Measurements: PMC10508484, “Development and application of a PBPK modeling strategy to support antimalarial drug development” (CPT: Pharmacometrics & Systems Pharmacology, 2023)
# Where two headings read alike, the source gives them in different places.
# How the values were obtained:
# [1] = ref McCarthy et al., 2020 47, cited from earlier work; for AUC Obs: 0-inf
# [2] = Fraction unbound in plasma (fu), main binding protein; settings: PBPK input; unpublished (in-house) data
# UGT1A1 = target: T1, UGT1A1 (Homo sapiens, UniProt P22309); test: Metabolism by UGT1A1; format: in vitro ADME
# T1 sequence (P22309 26-533): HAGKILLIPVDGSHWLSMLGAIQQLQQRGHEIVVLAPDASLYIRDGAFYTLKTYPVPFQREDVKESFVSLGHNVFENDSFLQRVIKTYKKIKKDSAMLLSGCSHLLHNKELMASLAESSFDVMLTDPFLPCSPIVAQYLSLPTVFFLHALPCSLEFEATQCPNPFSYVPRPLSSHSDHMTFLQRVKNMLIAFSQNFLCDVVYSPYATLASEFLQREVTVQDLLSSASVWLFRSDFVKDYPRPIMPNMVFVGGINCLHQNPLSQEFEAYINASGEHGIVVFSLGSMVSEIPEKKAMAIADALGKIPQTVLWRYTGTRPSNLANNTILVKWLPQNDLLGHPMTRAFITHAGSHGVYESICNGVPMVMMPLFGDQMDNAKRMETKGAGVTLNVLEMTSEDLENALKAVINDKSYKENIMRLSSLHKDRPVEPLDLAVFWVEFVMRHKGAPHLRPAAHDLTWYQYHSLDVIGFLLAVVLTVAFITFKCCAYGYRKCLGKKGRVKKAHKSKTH
# From the text: (§1) In nearly all cases the fraction of systemic elimination metabolised by a given enzyme (fm) determined in vitro was unavailable in the literature.
# in vitro = settings: human, Caco-2
# [3] = Blood to plasma ratio (B:P); settings: PBPK input; unpublished (in-house) data
# [4] = clinically observed oral (in vivo) clearance; pyronaridine: blood; ref amodiaquine Winstanley et al., 1987 9; DEAQ Akande et al., 2015 8, Scarsi et al., 2014 35, Tarning et al., 2012 36, Orrell et al., 2008 37; DHA Na-Bangchang et al., 2004 42; lumefantrine Lefevre et al., 2002 52, Hoglund et al., 2015 53; mefloquine Charles et al., 2007 56; proguanil Jeppesen et al., 1997 34; pyronaridine Jittama; cited from earlier work
# [5] = In vivo clearance (CL IV, CL PO, CL renal, fe); settings: rat, after IV dose
# [6] = In vitro flags for victim and perpetrator properties conferring DDI liability; format: in vitro ADME, human; settings: in vitro flag, mainly based on in vitro determinations
# CYP3A4 = CYP3A4 (Homo sapiens, UniProt P08684)
# CYP3A4, sequence (P08684 whole entry): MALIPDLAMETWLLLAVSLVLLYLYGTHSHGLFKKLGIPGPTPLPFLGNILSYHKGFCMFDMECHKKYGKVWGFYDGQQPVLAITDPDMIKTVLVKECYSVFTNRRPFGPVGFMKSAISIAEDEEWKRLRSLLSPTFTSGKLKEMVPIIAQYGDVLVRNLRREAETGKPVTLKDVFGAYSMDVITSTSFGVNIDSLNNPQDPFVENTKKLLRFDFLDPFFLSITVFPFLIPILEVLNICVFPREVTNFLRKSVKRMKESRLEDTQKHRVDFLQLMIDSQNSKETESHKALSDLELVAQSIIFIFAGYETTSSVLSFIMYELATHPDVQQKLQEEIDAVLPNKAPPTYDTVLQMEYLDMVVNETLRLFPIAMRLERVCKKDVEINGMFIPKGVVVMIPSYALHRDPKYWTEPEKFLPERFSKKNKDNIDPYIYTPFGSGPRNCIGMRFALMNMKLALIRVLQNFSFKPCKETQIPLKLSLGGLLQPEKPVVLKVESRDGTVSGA
# From the text: as §1
smiles,measurement,setting,value
CS(=O)(=O)c1ccc(-c2cnc(N)c(-c3ccc(C(F)(F)F)nc3)c2)cc1 [MMV048],AUC Obs,[1]; 40 mg SD,30320 ng·h/mL
same,Cmax Obs,[1]; 40 mg SD,272.7 ng/mL
same,AUC Obs,[1]; 80 mg SD,82680 ng·h/mL
same,Cmax Obs,[1]; 80 mg SD,561.0 ng/mL
same,AUC Obs,[1]; 120 mg SD,137800 ng·h/mL
same,Cmax Obs,[1]; 120 mg SD,1094.0 ng/mL
same,fu,[2],0.145
same,CLint UGT1A1,UGT1A1; Derived from CL PO using retrograde calculations,1.13 µL/min/pmol
same,fm UGT1A1,"UGT1A1; allocation of clearance, based on in vitro data",90%
same,fm by UGT1A1,UGT1A1; fraction metabolized,0.9
same,Papp A→B,in vitro,44 ×10⁻⁶ cm/s
same,B:P,[3],0.9
same,CL PO,[4],0.82 L/h
same,dose recovered in urine,[5],0.2 % of dose
same,Risk as a perpetrator,[6],No risk has been identified as a perpetrator
same,fmCYP3A4,CYP3A4,10%
same,CLint CYP3A4,CYP3A4; microsomes,0.13 µL/min/pmol
